Experimental data as given in patent publication US7998940B2, “Aptamers to von Willebrand factor and their use as thrombotic disease therapeutics” (Archemix Corp., priority 2004, dated 2011).
[invdT] = inverted (3'-3') thymidine; d = 2'-deoxy (DNA); m = 2'-O-methyl

System: vWF dependent platelet plug formation, cynomolgus whole blood
Test: PFA-100 assay, cynomolgus macaque whole blood
Format: cell-based, cynomolgus macaques
Conditions: minimum concentration that extends closing time to 300 seconds
Excerpt: Another assay of this Example, using the PFA-100 instrument, is an agonist independent but vWF dependent assay that uses the PFA-100 instrument (Harrison et al., Clin. Lab. Haem., v24, p 225-32 (2002)). The PFA-100 simulates the formation of a hemostatic plug under conditions of high shear force in vivo by recording the time required for a platelets to aggregate and block the flow of citrated whole blood through a microscopic aperture in a membrane coated with collagen and either epinephrine or ADP. This activity is von Willebrand factor dependent as high MW vWF multimers bind to immobilized collagen on the membrane and then bind to and activate platelets because of the shear force induced by drawing the blood through the microscopic aperture.
Fresh whole blood was collected from healthy non-steroidal anti-inflammatory drug (NSAID) free cynomolgus macaques. […]
In order to assay the titration of aptamer in whole blood, the aptamer was added to no-additive vacutainer tubes and diluted to the desired concentrations (ex: 0 nM, 1 nM to 1000 nM) using physiological saline such that the final volume was […]. When the PFA-100 was ready to run the next set of samples, 1940 μl of whole blood was added to the tube containing a concentration of aptamer. […] The time of occlusion of the aperture was measured by the PFA-100, with a maximal time of 300 seconds. […]

mGmCmGmUdGdCdAmGmUmGmCmCmUmUmCmGmGmCdCmG-s-TmGdCdGdGTmGmCdCmUdCdCmGmUdCmAmCmGmC-3T (GCGUGCAGUGCCUUCGGCCGTGCGGTGCCUCCGUCACGC; sugars from the 5' end mmmmdddmmmmmmmmmmmdmdmddddmmdmddmmdmmmm, [invdT] at 3' end, backbone not given here) [ARC1368]
~IC95 PFA-100 (nM) with citrated C. macaque whole blood: ~100 nM
